Measurements as given in patent publication EP1247803A2, “Indolinone compounds suitable for modulation of protein kinases” (Sugen, Inc., priority 1996, dated 1998).

Target: T1, FLK-1 receptor (Mus musculus, UniProt P35918)
T1 construct: expressed in transfected cells; host or cells: NIH3T3 C7#3
Experiment: FLK-1 ELISA (kinase activity of the FLK-1 receptor in FLK-1/NIH3T3 cells, VEGF stimulated)
Format: cell-based
In short: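 FLK-1-expressing NIH3T3 C7#3 cells, starved overnight in 0.1% FBS medium, were treated with compounds at a 1:200 final dilution (0.5% DMSO) for 2 h at 37 °C, with VEGF stimulation. FLK-1 kinase activity was read by ELISA on anti-rabbit IgG plates using affinity-purified anti-FLK-1 antiserum.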

T1 sequence (P35918 20-1345): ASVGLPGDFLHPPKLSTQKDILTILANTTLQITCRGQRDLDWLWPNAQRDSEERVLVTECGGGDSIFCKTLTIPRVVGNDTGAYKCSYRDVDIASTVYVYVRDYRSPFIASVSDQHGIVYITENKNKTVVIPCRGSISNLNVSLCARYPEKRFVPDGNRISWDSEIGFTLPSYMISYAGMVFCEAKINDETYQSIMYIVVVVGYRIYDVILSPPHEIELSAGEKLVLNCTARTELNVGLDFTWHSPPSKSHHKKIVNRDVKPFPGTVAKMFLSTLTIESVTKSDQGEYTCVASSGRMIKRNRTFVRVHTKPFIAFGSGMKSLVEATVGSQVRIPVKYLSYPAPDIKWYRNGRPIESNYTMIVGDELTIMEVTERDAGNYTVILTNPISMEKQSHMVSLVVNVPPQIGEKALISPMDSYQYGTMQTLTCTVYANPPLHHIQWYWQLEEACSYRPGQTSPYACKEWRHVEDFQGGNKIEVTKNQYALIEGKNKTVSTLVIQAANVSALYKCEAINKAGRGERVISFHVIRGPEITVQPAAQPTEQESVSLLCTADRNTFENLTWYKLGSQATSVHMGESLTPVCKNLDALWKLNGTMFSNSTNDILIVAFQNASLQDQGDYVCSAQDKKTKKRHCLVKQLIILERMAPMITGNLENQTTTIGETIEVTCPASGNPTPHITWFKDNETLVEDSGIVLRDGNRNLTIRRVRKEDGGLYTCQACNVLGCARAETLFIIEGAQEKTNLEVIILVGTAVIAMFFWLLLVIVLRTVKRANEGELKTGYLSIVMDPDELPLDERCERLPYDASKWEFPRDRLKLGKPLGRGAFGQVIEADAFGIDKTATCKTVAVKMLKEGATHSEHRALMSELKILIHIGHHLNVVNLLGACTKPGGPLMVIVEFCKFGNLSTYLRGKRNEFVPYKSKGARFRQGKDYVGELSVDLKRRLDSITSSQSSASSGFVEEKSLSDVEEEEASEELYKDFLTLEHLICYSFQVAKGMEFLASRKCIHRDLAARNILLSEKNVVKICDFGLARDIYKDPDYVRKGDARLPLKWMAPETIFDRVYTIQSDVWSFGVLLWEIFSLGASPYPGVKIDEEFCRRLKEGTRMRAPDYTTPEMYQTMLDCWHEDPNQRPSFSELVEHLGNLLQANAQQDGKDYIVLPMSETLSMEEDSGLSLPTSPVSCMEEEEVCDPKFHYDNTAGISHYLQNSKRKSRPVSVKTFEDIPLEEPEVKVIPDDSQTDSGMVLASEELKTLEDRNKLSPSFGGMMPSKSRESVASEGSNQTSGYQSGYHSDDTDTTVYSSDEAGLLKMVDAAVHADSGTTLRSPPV

Row | SMILES | Fik Kinase %Inhibition [%]
1 | COc1ccc(C=C2C(=O)Nc3ccc(Br)c(C)c32)cc1OC [10720/C04] | 15.3
2 | COc1ccc(O)c(C=C2C(=O)Nc3c(Br)cc(Br)cc32)c1 [10720/A10] | -5.2
3 | CCOc1ccccc1C=C1C(=O)Nc2ccc(Br)c(C)c21 [10717/C02] | 4.1
4 | O=C1Nc2ccc(CCCl)cc2C1=Cc1cccc([N+](=O)[O-])c1 [10719/G10] | 9.7
5 | O=C1Nc2ccc(I)cc2C1=Cc1ccc[nH]1 [10717/B09] | -40.7
6 | O=C1Nc2ccc(S(=O)(=O)Nc3ccc(C(F)(F)F)cc3)cc2C1=Cc1ccc(O)c(O)c1 [10719/E03] | 17.1
7 | CNS(=O)(=O)c1ccc2c(c1)C(=Cc1c(F)cc(F)cc1F)C(=O)N2 [10720/D02] | 12.1
8 | O=C1Nc2ccc(S(=O)(=O)N3CCOCC3)cc2C1=Cc1cccc([N+](=O)[O-])c1 [10719/F10] | 10.4
9 | Cc1c(Br)ccc2c1C(=Cc1ccccc1O)C(=O)N2 [10720/C05] | -36.1
10 | CCOc1ccc(C=C2C(=O)Nc3ccc(S(=O)(=O)Nc4ccc(C(F)(F)F)cc4)cc32)cc1OC [10719/E02] | 26.1
11 | CNS(=O)(=O)c1ccc2c(c1)C(=Cc1ccc(OC)cc1OC)C(=O)N2 [10719/D04] | 27.8
12 | CN(C)c1ccc(C=C2C(=O)Nc3ccc(CCCl)cc32)cc1 [10719/G08] | 3.2
13 | CNS(=O)(=O)c1ccc2c(c1)C(=Cc1ccc(F)cc1Cl)C(=O)N2 [10719/D09] | 7.8
14 | O=C1Nc2ccc(S(=O)(=O)N3CCOCC3)cc2C1=Cc1ccc(F)cc1C(F)(F)F [10719/F11] | 11.6
15 | O=C1Nc2ccc(S(=O)(=O)Nc3ccc(C(F)(F)F)cc3)cc2C1=Cc1ccc(F)cc1C(F)(F)F [10719/E11] | 26.3
16 | Cc1cc(O)cc(O)c1C=C1C(=O)Nc2c(Br)cc(Br)cc21 [10720/A08] | -2.2
17 | Cc1c(Br)ccc2c1C(=Cc1c(F)cc(F)cc1F)C(=O)N2 [10720/C02] | 18.0
18 | O=C1Nc2c(Br)cc(Br)cc2C1=Cc1c(F)cc(F)cc1F [10720/A02] | 4.7
19 | CCOc1cc(C=C2C(=O)Nc3ccc(Br)c(C)c32)ccc1O [10720/C09] | 12.1
20 | CNS(=O)(=O)c1ccc2c(c1)C(=Cc1ccc(O)c(O)c1)C(=O)N2 [10719/D03] | 4.8
21 | Cc1[nH]c(C=C2C(=O)Nc3ccc(I)cc32)c(Br)c1Br [10717/B11] | 11.4
22 | COc1cc(O)ccc1C=C1C(=O)Nc2ccc(Br)c(C)c21 [10720/C03] | 15.1
23 | COc1ccc(C=C2C(=O)Nc3ccc(S(=O)(=O)Nc4ccc(C(F)(F)F)cc4)cc32)c(OC)c1 [10719/E04] | 31.2
24 | Cc1c(Br)ccc2c1C(=Cc1ccccc1)C(=O)N2 [10720/C06] | 12.2
25 | O=C1Nc2ccc(S(=O)(=O)Nc3ccc(C(F)(F)F)cc3)cc2C1=Cc1ccc(F)cc1Cl [10719/E09] | 13.5
26 | Cc1c(Br)ccc2c1C(=Cc1cccs1)C(=O)N2 [10717/C03] | -7.7
27 | O=C1Nc2ccc(CCCl)cc2C1=Cc1ccc(F)cc1C(F)(F)F [10719/G11] | 6.9

Row | SMILES | Fik Kinase %Inhibition [%]
28 | Cc1c(Br)ccc2c1C(=Cc1ccc(F)cc1C(F)(F)F)C(=O)N2 [10719/C11] | 9.9
29 | COc1ccc(O)c(C=C2C(=O)Nc3ccc(Br)c(C)c32)c1 [10720/C10] | -21.1
30 | COc1cc(OC)c(C=C2C(=O)Nc3ccc(CCCl)cc32)c(OC)c1 [10719/G06] | 23.2
31 | COc1ccc(C=C2C(=O)Nc3ccc(S(=O)(=O)N4CCOCC4)cc32)c(OC)c1 [10719/F04] | 26.6
32 | O=C1Nc2ccc(S(=O)(=O)Nc3ccc(C(F)(F)F)cc3)cc2C1=Cc1ccc(O)cc1 [10719/E07] | 26.7
33 | COc1cc(O)ccc1C=C1C(=O)Nc2ccc(I)cc21 [10720/B03] | 6.4
34 | COc1cccc(O)c1C=C1C(=O)Nc2ccc(I)cc21 [10717/B10] | -2.3
35 | CN(C)c1ccc(C=C2C(=O)Nc3ccc(S(=O)(=O)N4CCOCC4)cc32)cc1 [10719/F08] | 15.1
36 | CNS(=O)(=O)c1ccc2c(c1)C(=Cc1c(OC)cc(OC)cc1OC)C(=O)N2 [10719/D06] | 25.8
37 | CCc1c(C)[nH]c(C=C2C(=O)Nc3ccc(S(=O)(=O)NC)cc32)c1C [10719/D05] | 16.3
38 | Cc1cc(O)cc(O)c1C=C1C(=O)Nc2ccc(Br)c(C)c21 [10720/C08] | 10.9
39 | CCOc1ccc(C=C2C(=O)Nc3ccc(S(=O)(=O)N4CCOCC4)cc32)cc1OC [10719/F02] | 28.6
40 | COc1cc(OC)c(C=C2C(=O)Nc3ccc(S(=O)(=O)Nc4ccc(C(F)(F)F)cc4)cc32)c(OC)c1 [10719/E06] | 17.1
41 | CSc1ccc(C=C2C(=O)Nc3ccc(Br)c(C)c32)s1 [10720/C07] | 20.7
42 | COc1ccc(C=C2C(=O)Nc3ccc(I)cc32)cc1OC [10720/B04] | 9.8
43 | CCOc1ccc(C=C2C(=O)Nc3ccc(S(=O)(=O)NC)cc32)cc1OC [10719/D02] | 9.7
44 | CNS(=O)(=O)c1ccc2c(c1)C(=Cc1ccc(N(C)C)cc1)C(=O)N2 [10719/D08] | 8.2
45 | COc1cc(OC)c(C=C2C(=O)Nc3ccc(S(=O)(=O)N4CCOCC4)cc32)c(OC)c1 [10719/F06] | 13.5
46 | CCc1c(C)[nH]c(C=C2C(=O)Nc3ccc(CCCl)cc32)c1C [10719/G05] | 18.0
47 | CCc1c(C)[nH]c(C=C2C(=O)Nc3ccc(S(=O)(=O)N4CCOCC4)cc32)c1C [10719/F05] | 20.7
48 | COc1ccc(O)c(C=C2C(=O)Nc3ccc(I)cc32)c1 [10720/B10] | -5.5
49 | CN(C)c1ccc(C=C2C(=O)Nc3ccc(S(=O)(=O)Nc4ccc(C(F)(F)F)cc4)cc32)cc1 [10719/E08] | 21.8
50 | COc1ccc(C=C2C(=O)Nc3c(Br)cc(Br)cc32)cc1OC [10720/A04] | 12.3
51 | CNS(=O)(=O)c1ccc2c(c1)C(=Cc1cccc([N+](=O)[O-])c1)C(=O)N2 [10719/D10] | 8.3
52 | O=C1Nc2c(Br)cc(Br)cc2C1=Cc1ccccc1O [10720/A05] | 8.0
53 | Cc1c(Br)ccc2c1C(=Cc1cccc([N+](=O)[O-])c1)C(=O)N2 [10719/C10] | 11.8
54 | O=C1Nc2ccc(S(=O)(=O)N3CCOCC3)cc2C1=Cc1ccc(F)cc1Cl [10719/F09] | -6.5

Row | SMILES | Fik Kinase %Inhibition [%]
55 | CSc1ccc(C=C2C(=O)Nc3ccc(I)cc32)s1 [10720/B07] | 12.0
56 | Cc1cc(O)cc(O)c1C=C1C(=O)Nc2ccc(I)cc21 [10720/B08] | 3.6
57 | COc1ccc(C=C2C(=O)Nc3ccc(CCCl)cc32)c(OC)c1 [10719/G04] | 11.5
58 | O=C1Nc2c(Br)cc(Br)cc2C1=Cc1ncc[nH]1 [10720/A11] | -0.6
59 | Cc1c(Br)ccc2c1C(=Cc1ncc[nH]1)C(=O)N2 [10720/C11] | 52.5
60 | CCOc1ccc(C=C2C(=O)Nc3ccc(CCCl)cc32)cc1OC [10719/G02] | 27.3
61 | O=C1Nc2ccc(CCCl)cc2C1=Cc1ccc(O)cc1 [10719/G07] | 20.1
62 | O=C1Nc2ccc(I)cc2C1=Cc1ncc[nH]1 [10720/B11] | -20.3
63 | O=C1Nc2c(Br)cc(Br)cc2C1=Cc1ccccc1 [10720/A06] | 5.6
64 | O=C1Nc2ccc(I)cc2C1=Cc1ccccc1O [10720/B05] | 11.6
65 | CNS(=O)(=O)c1ccc2c(c1)C(=Cc1ccc(O)cc1OC)C(=O)N2 [10720/D03] | 17.0
66 | CSc1ccc(C=C2C(=O)Nc3c(Br)cc(Br)cc32)s1 [10720/A07] | 6.6
67 | O=C1Nc2ccc(S(=O)(=O)N3CCOCC3)cc2C1=Cc1ccc(O)c(O)c1 [10719/F03] | 11.2
68 | CCOc1cc(C=C2C(=O)Nc3ccc(I)cc32)ccc1O [10720/B09] | 10.1
69 | O=C1Nc2ccc(CCCl)cc2C1=Cc1ccc(F)cc1Cl [10719/G09] | 18.1
70 | CNS(=O)(=O)c1ccc2c(c1)C(=Cc1ccc(O)cc1)C(=O)N2 [10719/D07] | -123.5
71 | O=C1Nc2ccc(I)cc2C1=Cc1c(F)cc(F)cc1F [10720/B02] | 6.5
72 | O=C1Nc2ccc(S(=O)(=O)N3CCOCC3)cc2C1=Cc1ccc(O)cc1 [10719/F07] | 18.7
73 | O=C1Nc2ccc(I)cc2C1=Cc1ccccc1 [10720/B06] | 7.3
74 | COc1cc(O)ccc1C=C1C(=O)Nc2c(Br)cc(Br)cc21 [10720/A03] | 17.7
75 | O=C1Nc2ccc(S(=O)(=O)Nc3ccc(C(F)(F)F)cc3)cc2C1=Cc1cccc([N+](=O)[O-])c1 [10719/E10] | 17.6
76 | CCc1c(C)[nH]c(C=C2C(=O)Nc3ccc(S(=O)(=O)Nc4ccc(C(F)(F)F)cc4)cc32)c1C [10719/E05] | 21.5
77 | CCOc1cc(C=C2C(=O)Nc3c(Br)cc(Br)cc32)ccc1O [10720/A09] | 8.1
78 | Cc1ccc(C=C2C(=O)Nc3ccc(I)cc32)s1 [10717/B07] | -18.3
79 | O=C1Nc2ccc(CCCl)cc2C1=Cc1ccc(O)c(O)c1 [10719/G03] | -25.8
80 | O=C1Nc2ccc(I)cc2C1=Cc1ccc(Br)cc1 [10717/B08] | -0.9
